The target in test [1] is T1, human vasopressin V1a receptor (Homo sapiens, UniProt P37288). In words: Human vasopressin V1a receptor binding assay. The conditions noted are these: 1321N1 cell membranes, [3H]vasopressin; read-out: Ki (nM) on hV1a cell line. An outline of the steps: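 Radioligand competition on membranes from cells expressing human V1a receptor; incubation 60 minutes at 27° C., non-specific binding with 1.2×10^−6 M unlabeled (Arg^8)-vasopressin, filtration separation. Ki by Cheng-Prusoff using Scatchard-derived KD, from at least two independent experiments.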

Test [2] deals with T1, human vasopressin V1a receptor. In words: Functional assay on human vasopressin V1a receptor expressing cell line (intracellular Ca2+ fluorescence). Type of test: cell-based. The note with it: 1321N1 cells, (Arg8)-vasopressin at EC80; read-out: IC50 (nM) on hV1a cell line.

Each structure is given as a SMILES string.

T1 sequence (P37288 whole entry): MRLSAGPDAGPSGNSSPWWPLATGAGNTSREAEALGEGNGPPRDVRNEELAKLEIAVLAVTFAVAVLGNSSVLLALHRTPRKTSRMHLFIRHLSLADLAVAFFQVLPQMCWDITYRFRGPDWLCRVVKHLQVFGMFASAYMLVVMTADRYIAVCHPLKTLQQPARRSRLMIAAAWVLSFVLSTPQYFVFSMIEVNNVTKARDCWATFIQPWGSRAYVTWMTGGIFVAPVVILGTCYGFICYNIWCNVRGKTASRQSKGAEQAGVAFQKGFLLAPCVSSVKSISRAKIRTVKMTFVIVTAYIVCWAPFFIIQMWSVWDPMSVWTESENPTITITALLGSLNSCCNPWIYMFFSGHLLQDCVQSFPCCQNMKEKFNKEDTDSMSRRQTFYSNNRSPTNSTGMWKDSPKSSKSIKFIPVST

On to `COC1Cc2cc(Cl)ccc2-n2c(nnc2C2CCN(Cc3cccnc3)C2)C1` (stereo not drawn) [Example 184, 8-chloro-5-methoxy-1-[1-(pyridin-3-ylmethyl)pyrrolidin-3-yl]-5,6-dihydro-4H-[1,2,4]triazolo[4,3-a][1]benzazepine], for which, in test [1], the Ki is 0.6 nM. For the same molecule, the IC50 in test [2] was 25 nM.
On to `COC1Cc2cc(Cl)ccc2-n2c(nnc2C2CCN(Cc3ccccn3)C2)C1` (stereo not drawn) [Example 185, 8-chloro-5-methoxy-1-[1-(pyridin-2-ylmethyl)pyrrolidin-3-yl]-5,6-dihydro-4H-[1,2,4]triazolo[4,3-a][1]benzazepine], for which, in test [1], the Ki was determined as 4.1 nM. Further, the IC50 in test [2] turned out to be 19 nM.
Consider `N#CCC(=O)N[C@@H]1Cc2cc(Cl)ccc2-n2c(nnc2[C@H]2CC[C@H](Oc3ccccn3)CC2)C1` [Example 186, N-(5R)-8-chloro-1-[trans-4-(pyridin-2-yloxy)cyclohexyl]-5,6-dihydro-4H-[1,2,4]triazolo[4,3-a][1]benzazepin-5-yl-2-cyanoacetamide], for which, in test [1], the Ki amounted to 0.4 nM. In addition, in test [2], the half-maximal inhibitory concentration (IC50) amounted to 1.2 nM.
In the same order, the values of `COC1Cc2cc(Cl)ccc2-n2c(nnc2C2CCN(C(=O)c3cccnc3)C2)C1` (stereo not drawn) [Example 187, [3-(8-chloro-5-methoxy-5,6-dihydro-4H-[1,2,4]triazolo[4,3-a][1]benzazepin-1-yl)pyrrolidin-1-yl](pyridin-3-yl)methanone] are 86 nM and 4750 nM.
In the same order, the values of `Clc1ccc2c(c1)CC1(Cc3nnc(C4CCN([C@@H]5CCOC5)CC4)n3-2)OCCO1` [Example 188, 8′-chloro-1′-{1-[(3R)tetrahydrofuran-3-yl]piperidin-4-yl}-4′H,6′H-spiro[1,3-dioxolane-2,5′-[1,2,4]triazolo[4,3-a][1]benzazepine]] are 0.5 nM and 5.3 nM.
Consider `COC1Cc2cc(Cl)ccc2-n2c(nnc2C2CCN(C(=O)c3ccccn3)C2)C1` (stereo not drawn) [Example 189, [3-(8-chloro-5-methoxy-5,6-dihydro-4H-[1,2,4]triazolo[4,3-a][1]benzazepin-1-yl)pyrrolidin-1-yl](pyridin-2-yl)methanone], for which, in test [1], the Ki came to 10 nM. In test [2], the IC50 worked out at 229 nM.
The like results for `CN(C)[C@H]1CC[C@H](c2nnc3n2-c2ccc(Cl)cc2CC2(C3)OCCO2)CC1` [Example 190, Trans-4-(8′-chloro-4′H,6′H-spiro[1,3-dioxolane-2,5′-[1,2,4]triazolo[4,3-a][1]benzazepin]-1′-yl)-N,N-dimethylcyclohexanamine] were, in that order, 5.3 nM and 105 nM.
In the case of `COC1Cc2cc(Cl)ccc2-n2c(nnc2N2CCC3(CC2)OCc2ccccc23)C1` (stereo not drawn) [Example 191, 8-chloro-5-methoxy-1-(1′H,3H-spiro[2-benzofuran-1,4′-piperidin]-1′-yl)-5,6-dihydro-4H-[1,2,4]triazolo[4,3-a][1]benzazepine], the Ki in test [1] is 0.3 nM. Besides, the concentration for half-maximal inhibition (IC50) in test [2] came out at 2.9 nM.
The like results for `COC1Cc2cc(Cl)ccc2-n2c(nnc2N2CCN(c3ncccc3Cl)CC2)C1` (stereo not drawn) [Example 192, 8-chloro-1-[4-(3-chloropyridin-2-yl)piperazin-1-yl]-5-methoxy-5,6-dihydro-4H-[1,2,4]triazolo[4,3-a][1]benzazepine] were, in that order, 0.8 nM and 6.3 nM.
With `Clc1ccc2c(c1)CC1(Cc3nnc([C@H]4CC[C@H](Nc5ccccn5)CC4)n3-2)OCCO1` [Example 193, N-[trans-4-(8′-chloro-4′H,6′H-spiro[1,3-dioxolane-2,5′-[1,2,4]triazolo[4,3-a][1]benzazepin]-1′-yl)cyclohexyl]pyridin-2-amine], the Ki in test [1] was determined as 0.1 nM. In addition, the IC50 in test [2] worked out at 0.9 nM.
With `CN(C)CCN[C@@H]1Cc2cc(Cl)ccc2-n2c(nnc2[C@H]2CC[C@H](Oc3ccccn3)CC2)C1` [Example 194, N′-{(5R)-8-chloro-1-[trans-4-(pyridin-2-yloxy)cyclohexyl]-5,6-dihydro-4H-[1,2,4]triazolo[4,3-a][1]benzazepin-5-yl}-N,N-dimethylethane-1,2-diamine], in test [1], the inhibitory constant (Ki) stood at 1.1 nM. The IC50 in test [2] worked out at 22 nM.
With `CC(=O)OC1Cc2cc(Cl)ccc2-n2c(nnc2[C@H]2CC[C@H](Oc3ccccn3)CC2)C1` (stereo partly drawn) [Example 195, 8-chloro-1-[trans-4-(pyridin-2-yloxy)cyclohexyl]-5,6-dihydro-4H-[1,2,4]triazolo[4,3-a][1]benzazepin-5-yl acetate], the Ki in test [1] stood at 0.3 nM. Besides, the IC50 in test [2] turned out to be 1.6 nM.
In the case of `OCCN[C@@H]1Cc2cc(Cl)ccc2-n2c(nnc2[C@H]2CC[C@H](Oc3ccccn3)CC2)C1` [Example 196, 2-({(5R)-8-chloro-1-[trans-4-(pyridin-2-yloxy)cyclohexyl]-5,6-dihydro-4H-[1,2,4]triazolo[4,3-a][1]benzazepin-5-yl}amino)ethanol], the Ki in test [1] was 0.5 nM. Besides, the IC50 in test [2] was determined as 2.7 nM.
Turning to `COC1Cc2cc(Cl)ccc2-n2c(nnc2N2CCC(Oc3ccccn3)CC2)C1` (stereo not drawn) [Example 197, 8-chloro-5-methoxy-1-[4-(pyridin-2-yloxy)piperidin-1-yl]-5,6-dihydro-4H-[1,2,4]triazolo[4,3a][1]benzazepine], the Ki in test [1] is 0.3 nM. In addition, the half-inhibitory concentration (IC50) in test [2] was 4.1 nM.
On to `Clc1ccc2c(c1)C[C@H](NCC1CC1)Cc1nnc([C@H]3CC[C@H](Oc4ccccn4)CC3)n1-2` [Example 199], for which the Ki in test [1] worked out at 2.2 nM. The concentration for half-maximal inhibition (IC50) in test [2] is 23 nM.
The like results for `CN1CCC(C(=O)N[C@H]2Cc3cc(Cl)ccc3-n3c(nnc3[C@H]3CC[C@H](Oc4ccccn4)CC3)C2)CC1` [Example 200] were, in that order, 114 nM and 1190 nM.
Consider `O=C(N[C@H]1Cc2cc(Cl)ccc2-n2c(nnc2[C@H]2CC[C@H](Oc3ccccn3)CC2)C1)C(F)(F)F` [Example 201], for which the inhibitory constant (Ki) in test [1] is 3.9 nM. Besides, the half-maximal inhibitory concentration (IC50) in test [2] stood at 19 nM.
The like results for `COCCOC1Cc2cc(Cl)ccc2-n2c(nnc2[C@H]2CC[C@H](Oc3ccccn3)CC2)C1` (stereo partly drawn) [Example 202, 8-chloro-5-(2-methoxyethoxy)-1-[trans-4-(pyridin-2-yloxy)cyclohexyl]-5,6-dihydro-4H-[1,2,4]triazolo[4,3-a][1]benzazepine] were, in that order, 0.4 nM and 1 nM.
In the same order, the values of `FC1Cc2cc(Cl)ccc2-n2c(nnc2[C@H]2CC[C@H](Oc3ccccn3)CC2)C1` (stereo partly drawn) [Example 206, 8-chloro-5-fluoro-1-[trans-4-(pyridin-2-yloxy)cyclohexyl]-5,6-dihydro-4H-[1,2,4]triazolo[4,3-a][1]benzazepine] are 0.2 nM and 0.9 nM.
As to `CS(=O)(=O)CCOC1Cc2cc(Cl)ccc2-n2c(nnc2[C@H]2CC[C@H](Oc3ccccn3)CC2)C1` (stereo partly drawn) [Example 207, 8-chloro-5-[2-(methylsulfonyl)ethoxy]-1-[trans-4-(pyridin-2-yloxy)cyclohexyl]-5,6-dihydro-4H-[1,2,4]triazolo[4,3-a][1]benzazepine], the Ki in test [1] is 0.3 nM. Besides, the 50% inhibitory concentration (IC50) in test [2] is 4.2 nM.
`O/N=C1/Cc2cc(Cl)ccc2-n2c(nnc2[C@H]2CC[C@H](Oc3ccccn3)CC2)C1` [Example 208, 8-chloro-N-hydroxy-1-[trans-4-(pyridin-2-yloxy)cyclohexyl]-4H-[1,2,4]triazolo[4,3-a][1]benzazepin-5(6H)-imine]: the Ki in test [1] came out at 0.1 nM. In addition, in test [2], the IC50 amounted to 2.2 nM.
Turning to `C#CCN(C)[C@H]1Cc2cc(Cl)ccc2-n2c(nnc2[C@H]2CC[C@H](Oc3ccccn3)CC2)C1` [Example 209, (5S)-8-chloro-N-methyl-N-(prop-2-yn-1-yl)-1-[trans-4-(pyridin-2-yloxy)cyclohexyl]-5,6-dihydro-4H-[1,2,4]triazolo[4,3-a][1]benzazepin-5-amine], the inhibition constant Ki in test [1] worked out at 0.2 nM. The IC50 in test [2] is 1.6 nM.
As for `O=C(N[C@H]1Cc2cc(Cl)ccc2-n2c(nnc2[C@H]2CC[C@H](Oc3ccccn3)CC2)C1)C1CC(F)(F)C1` [Example 210, N-{(5S)-8-chloro-1-[trans-4-(pyridin-2-yloxy)cyclohexyl]-5,6-dihydro-4H-[1,2,4]triazolo[4,3-a][1]benzazepin-5-yl}-3,3-difluorocyclobutanecarboxamide], in test [1], the Ki amounted to 56 nM. Besides, in test [2], the IC50 was 292 nM.
For the molecule `C#CCOC1Cc2cc(Cl)ccc2-n2c(nnc2[C@H]2CC[C@H](Oc3ccccn3)CC2)C1` (stereo partly drawn) [Example 211, 8-chloro-5-(prop-2-yn-1-yloxy)-1-[trans-4-(pyridin-2-yloxy)cyclohexyl]-5,6-dihydro-4H-[1,2,4]triazolo[4,3-a][1]benzazepine], in test [1], the Ki worked out at 0.7 nM. The IC50 in test [2] was 1.3 nM.
Take `O=C(OC1Cc2cc(Cl)ccc2-n2c(nnc2[C@H]2CC[C@H](Oc3ccccn3)CC2)C1)C1CCC(F)(F)CC1` (stereo partly drawn) [Example 212, 8-chloro-1-[trans-4-(pyridin-2-yloxy)cyclohexyl]-5,6-dihydro-4H-[1,2,4]triazolo[4,3-a][1]benzazepin-5-yl 4,4-difluorocyclohexanecarboxylate]: the Ki in test [1] was determined as 2.8 nM. The IC50 in test [2] was determined as 34 nM.
The like results for `O=C(OC1Cc2cc(Cl)ccc2-n2c(nnc2[C@H]2CC[C@H](Oc3ccccn3)CC2)C1)C1CC(F)(F)C1` (stereo partly drawn) [Example 213, 8-chloro-1-[trans-4-(pyridin-2-yloxy)cyclohexyl]-5,6-dihydro-4H-[1,2,4]triazolo[4,3-a][1]benzazepin-5-yl 3,3-difluorocyclobutanecarboxylate] were, in that order, 0.6 nM and 5.5 nM.
The like results for `O=C(N[C@H]1Cc2cc(Cl)ccc2-n2c(nnc2[C@H]2CC[C@H](Oc3ccccn3)CC2)C1)C1CCC(F)(F)CC1` [Example 214, N-{(5S)-8-chloro-1-[trans-4-(pyridin-2-yloxy)cyclohexyl]-5,6-dihydro-4H-[1,2,4]triazolo[4,3-a][1]benzazepin-5-yl}-4,4-difluorocyclohexanecarboxamide] were, in that order, 66 nM and 672 nM.

The Ki is the dissociation constant of the complex between target and ligand, obtained from inhibition or displacement. The term IC50 denotes the concentration needed to halve the response being measured.

The record behind these values is US11298363B2, “Triazolobenzazepines as vasopressin V1a receptor antagonists” (RICHTER GEDEON NYRT., priority 2017, dated 2022).
